Read-outs that look alike come from different tables or passages of the source.

Data on 15 molecules can be found in US20230105693A1, “ANTIMICROBIAL COMPOSITIONS” (Firmenich SA, priority 2020, published 2023).

One data set is described as follows: physchem. It is filed as physicochemical. As for the experimental part: The partition coefficient (P) is defined as the ratio of the concentrations (C) to the equilibrium of a dissolved and highly diluted substance in a biphasic system consisting of two almost immiscible solvents.
In the case of n-octanol and water:
The partition coefficient P is the quotient of two concentrations, it is generally indicated in its logarithmic form, base 10 (LogP).
The log P values of different perfume ingredients were measured using standard high performance liquid chromatography method, according to the reference (OECD, guideline No. 117, adopted on 13 Apr. 2004, Partition coefficient (n-octanol-water), High Performance Liquid Chromatography (HPLC) Method).

Data set [1] relates to Escherichia coli ATCC 10536. Nature of the data set: Robotic BCT test of perfume ingredients in model surfactant bases. It is filed as cell-based. The note with it: for Log reduction (Log CFU/mL) Base 3: Base 3: SLES 1.5%, coco-glucoside 0.75%; for Log reduction (Log CFU/mL) Base 4: Base 4: SLES 2.25%, sodium xylene sulfonate 3%; for log reduction at 0.5 %: Escherichia coli, ATCC10536, 45 s. On the procedure:
The surfactant bases tested included 1) sodium lauryl ether sulfate (SLES) and cocamidopropyl betaine (CAPB) at 3:1 mass ratios; 2) SLES, CAPB and coco-glucoside at 2:1:1 mass ratios. Test samples were prepared by mixing perfume ingredients with the surfactant bases and vigorously stirred for 24 hrs. Concentration of perfume ingredients in the bases was 0.5% wt. Samples with transparent appearance were selected for antimicrobial testing.
Antimicrobial efficacy was tested against a representative Gram-negative bacterial strain, Escherichia coli ATCC 10536, using robotic bacteria contact time (BCT) test based on European standard EN-1276 and EP2787827(B1).
Preparation of screening plate and dilution plate: Aliquots (270 µl) of compositions were dispensed into the wells of a 96-well microtiter plate (MTP) along two columns (B1-H1, and B7-H7), and 270 µl of MilliQ water was added to well A1 and A7 as the control samples. This MTP was labelled as the “Screening plate”. In another MTP, labelled as the “Dilution plate”, 270 µL of Dey-Engley (D/E) neutralizing solution was added to column 1 and column 7. 270 µl of tryptone diluent solution was added to columns 2-6 and columns 8-12 of the Dilution MTP by a Hamilton robotic liquid handling station.
BCT test & neutralization & dilution: Bacterial stock (30 µl) was then added to columns 1 of the ‘Screening plate’ and mixed by a Hamilton robotic liquid handling station. After a contact time of 45 seconds, 30 µl of the mixtures in column 1 were transferred into the corresponding wells of column 1 of the ‘Dilution plate’. After neutralizing for 5 minutes in the D/E neutralizing solution, 30 µl of the neutralized mixtures were transferred from column 1 to column 2 of the Dilution MTP and mixed, followed by transferring 30 µl of the mixtures from column 2 into column 3. This process was repeated serially diluting the bacteria suspensions across the plate to column 6. Bacterial stock (30 µl) was then added to columns 7 of the ‘Screening plate’ and mixed by a Hamilton robotic liquid handling station. After a contact time of 45 seconds, 30 µl of the mixtures in column 7 were transferred into the corresponding wells of column 7 of the ‘Dilution plate’. After neutralizing for 5 minutes in the D/E neutralizing solution, 30 µl of the mixtures were transferred from column 7 to column 8 of the Dilution MTP and mixed, followed by transferring further 30 µl mixtures from column 8 into column 9. This process was repeated serially diluting the bacteria suspensions across the plate to column 12.
Plating: 30 µl volumes from each well in the Dilution MTP were transferred onto four Tryptone Soya Agar (TSA) plates. The TSA plates were allowed to stand for about two hours so that the 30 µl inocula spots could dry and the plates were then inverted and incubated overnight at 37° C. for 24 hours. After incubation, colonies were counted.
Calculating log reduction: Select the dilutions with colony counts, and calculate the viable cell counts (CFU/mL) of mixture in ‘Screening plate’, and log reduction against the control MilliQ sample was calculated.

Data set [2] in a line: Equivalent alkane carbon number (EACN) in model microemulsion system. Type of data set: physicochemical. The note with it: C10E5/water/isopropyl myristate model system, 3% wt perfume ingredient. On the procedure: EACN values provide information on polarity and surface activity of apolar ingredients. Tchakalova and Fieber (J. of Surfactants and Detergents, 2012, 15(2):167-177) classified perfume ingredients based on values of EACNmix, the EACN of a mixture consisting of a test perfume ingredient and a reference oil (isopropyl myristate). The same model system and method were used to measure the EACN values of perfume ingredients with antimicrobial activities. Different perfume ingredients were added to the model microemulsion system shown in Table 1, in which the nonionic pentaethylene glycol mono n-decyl ether (C10E5) was used as surfactant. Phase transition temperatures of the system from Winsor I to Winsor III, and from Winsor III to Winsor II were determined using a water bath. Alkanes with different alkane carbon numbers (octane, decane, dodecane and hexadecane) were used to establish a linear correlation curve between EACN and the PIT, which is the average of the transitions from Winsor I to Winsor III, and from Winsor III to Winsor II, respectively. EACNmix was then calculated based on the linear relationship and the measured PIT for systems containing different perfume ingredients. The EACN of the pure perfume ingredient was calculated based on the molar ratio of the tested PRMs in the oil phase using following equation: […]
wherein n and nref are the molar fractions of tested perfume ingredient and the reference ingredient (i.e., isopropyl myristate) in the oil phase, respectively.

Setting [3] is: 0.5% perfume ingredient, CAPB 0.75%, contact 45 s.
Setting [4] is: 0.5% perfume ingredient, Base 1: SLES 1.875%, CAPB 0.625%, contact 45 s, read-out: Log reduction in Base 1 (Log CFU/mL).
Setting [5] is: 0.5% perfume ingredient, Base 2: SLES 2.25%, CAPB 0.75%, contact 45 s, read-out: Log reduction (Log CFU/mL) Base 2.
[6] abbreviates: model base 1, table by functional group, read-out: Log reduction in Base 1 (Log CFU/mL).
Setting [7] is: n-octanol/water, HPLC method, read-out: Log P.
Setting [8] is: model base 1, table by functional group.

In “physchem”, `CC(CCO)CCc1ccccc1` (racemic) [(+-)-3-methyl-5-phenyl-1-pentanol] gave a chromatographic logP of 3. Also, the “Log reduction (Log CFU/mL) Base 3” value in data set [1] (setting [3]) is on record as 2.9 Log CFU/mL. Also, the “Log reduction (Log CFU/mL) Base 4” value in data set [1] (setting [3]) turned out to be 2.8 Log CFU/mL. The log reduction at 0.5 % in data set [1] (setting [4]) worked out at 5 ± 2.1; in data set [1] (setting [5]), 0; in data set [1] (setting [6]), 4.3. In addition, the EACN in data set [2] is on record as -37.05.

For `CCCCCCC1CCC(=O)O1` (racemic) [(+-)-4-decanolide], in the data set “physchem” (setting [7]), the chromatographic logP worked out at 3.02. Moreover, the “Log reduction (Log CFU/mL) Base 3” value in data set [1] (setting [3]) turned out to be 0.6 Log CFU/mL. Moreover, the “Log reduction (Log CFU/mL) Base 4” value in data set [1] (setting [3]) came to 0.25 Log CFU/mL. In addition, the figures for the log reduction at 0.5 % in data set [1] (setting [4]) and in data set [1] (setting [5]) were 0.2 ± 0.3 and 0, respectively. Further, the EACN in data set [2] is -4.96.

By Log P is commonly meant a log measure of how a compound divides between an organic and an aqueous phase. High values mean higher lipophilicity, low ones lower lipophilicity. Consider `CC/C(CC(C)CC)=N/O` (racemic) [(+-)-(3Z)-5-methyl-3-heptanone oxime OR (+-)-(3E)-5-methyl-3-heptanone oxime], for which the “Log P” value in “physchem” is given as 2.45. Moreover, in data set [1] (setting [8]), the “Log reduction in Base 1 (Log CFU/mL)” value is given as 3.3 Log CFU/mL. Moreover, the EACN in data set [2] is -13.67.

As for `C=CCc1ccc(O)c(OC)c1` [2-methoxy-4-(2-propen-1-yl)phenol], the chromatographic logP in “physchem” (setting [7]) stood at 2.14. The log reduction at 0.5 % in data set [1] (setting [4]) was 0.2. Besides, the EACN in data set [2] is -31.24.

Turning to `CC(C)(O)Cc1ccccc1` [2-methyl-1-phenyl-2-propanol], the chromatographic logP in “physchem” (setting [7]) is 1.84. Also, the log reduction at 0.5 % in data set [1] (setting [4]) was -0.1. For the same molecule, the EACN in data set [2] is on record as -17.89.

Take `CC(C)(O)CCc1ccccc1` [2-methyl-4-phenyl-2-butanol]: the chromatographic logP in “physchem” (setting [7]) is 2.69. Further, the log reduction at 0.5 % in data set [1] (setting [4]) is -0.4. In data set [2], the EACN was -24.94.

`CCCc1cccc(O)c1` [3-propylphenol]: the chromatographic logP in the data set “physchem” (setting [7]) stood at 2.1. Also, the log reduction at 0.5 % in data set [1] (setting [4]) and in data set [1] (setting [6]) was above 5.5 throughout. Besides, the EACN in data set [2] was below -29.09.

In the case of `CC(C)c1ccc(CO)cc1` [4-isopropyl-1-benzenemethanol], the chromatographic logP in the data set “physchem” turned out to be 2.23. In data set [1] (setting [4]), the log reduction at 0.5 % is 1.3. In data set [2], the EACN is listed as -36.04.

`Cc1ccc(O)cc1` [4-methylphenol] gave a chromatographic logP in the data set “physchem” of 1.52. The log reduction at 0.5 % in data set [1] (setting [4]) stood at 0.1. The EACN in data set [2] is listed as below -21.95.

In turn, `CCC/C=C/CO` [(2E)-2-hexen-1-ol] gave a chromatographic logP in “physchem” of 1.73. For the same molecule, in data set [1] (setting [4]), the log reduction at 0.5 % is -0.2. Also, the EACN in data set [2] is recorded as -21.91.

For the molecule `C/C(C=O)=C\c1ccccc1` [(2E)-2-methyl-3-phenyl-2-propenal], the chromatographic logP in the data set “physchem” is 2.56. Also, the log reduction at 0.5 % in data set [1] (setting [6]) is 3.7. The EACN in data set [2] is listed as -12.17.

Consider `OC/C=C/c1ccccc1` [(2E)-3-phenyl-2-propen-1-ol], for which the chromatographic logP in the data set “physchem” turned out to be 1.79. Also, in data set [1] (setting [4]), the log reduction at 0.5 % was 0.1. In addition, the EACN in data set [2] is below -28.19.

Take `C=C(C)[C@@H]1CC=C(CO)CC1` [(-)-(S)-1,8-P-menthadien-7-ol]: the “Log P” value in “physchem” is listed as 2.68. For the same molecule, in data set [1] (0.5% perfume ingredient, Base 1: SLES 1.875%, CAPB 0.625%, contact 45 s), the “Log reduction in Base 1 (Log CFU/mL)” value was determined as 4.2 ± 0.1 Log CFU/mL. Also, the “Log reduction (Log CFU/mL) Base 2” value in data set [1] (0.5% perfume ingredient, Base 2: SLES 2.25%, CAPB 0.75%, contact 45 s) came out at 0 Log CFU/mL. Besides, in data set [1] (setting [3]), the “Log reduction (Log CFU/mL) Base 3” value is 1.4 Log CFU/mL and the “Log reduction (Log CFU/mL) Base 4” value came to 2.2 Log CFU/mL. The “Log reduction in Base 1 (Log CFU/mL)” value in data set [1] (setting [8]) is reported as 4.2 Log CFU/mL. Also, the EACN in data set [2] is listed as -30.83.

In “physchem”, `O=C/C=C/c1ccccc1` [(E)-3-Phenyl-2-propenal] yielded a chromatographic logP of 1.5. Also, the values for the log reduction at 0.5 % in data set [1] (setting [4]) and in data set [1] (setting [6]) were above 3 and 5.1, respectively. In addition, the EACN in data set [2] was -13.35.

As for `c1ccc2[nH]ccc2c1` [indole], the chromatographic logP in “physchem” (setting [7]) turned out to be 1.74. Also, in data set [1] (read-out: Log reduction in Base 1 (Log CFU/mL)), the log reduction at 0.5 % was found to be 1.9. In addition, in data set [2], the EACN is below -24.93.
